From US8461328B2, “Tricyclic heterocyclic compounds, compositions and methods of use thereof” (Genentech, Inc., priority 2010, dated 2013)

How the values were obtained:
Assay type in all cases: biochemical
JAK1 = biological target: T1, JAK1 (Homo sapiens, UniProt P23458); assay: JAK1 inhibition (Table 4); settings: read-out: JAK1 Ki
T1 construct: made in house; host or cells: SF9 insect cells (baculovirus)

JAK2 = biological target: T2, JAK2 (Homo sapiens, UniProt O60674); assay: JAK2 inhibition (Table 4); settings: read-out: JAK2 Ki
T2 construct: made in house; host or cells: SF9 insect cells (baculovirus)

JAK3 = biological target: T3, JAK3 (Homo sapiens, UniProt P52333); assay: JAK3 inhibition (Table 4); settings: read-out: JAK3 Ki
T3 construct: made in house; host or cells: SF9 insect cells (baculovirus)

TYK2 = biological target: T4, TYK2 (Homo sapiens, UniProt P29597); assay: TYK2 inhibition (Table 4)
T4 construct: made in house; host or cells: SF9 insect cells (baculovirus)
T4 sequence (P29597 873-1187): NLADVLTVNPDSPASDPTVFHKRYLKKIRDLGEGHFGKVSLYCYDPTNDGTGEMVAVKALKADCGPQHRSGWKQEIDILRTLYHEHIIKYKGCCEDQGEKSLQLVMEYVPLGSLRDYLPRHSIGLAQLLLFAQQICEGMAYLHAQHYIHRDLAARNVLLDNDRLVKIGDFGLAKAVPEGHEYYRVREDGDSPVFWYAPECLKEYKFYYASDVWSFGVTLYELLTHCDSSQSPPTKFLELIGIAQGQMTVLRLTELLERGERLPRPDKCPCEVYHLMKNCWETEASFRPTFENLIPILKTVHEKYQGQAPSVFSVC

T3 sequence (P52333 783-1124): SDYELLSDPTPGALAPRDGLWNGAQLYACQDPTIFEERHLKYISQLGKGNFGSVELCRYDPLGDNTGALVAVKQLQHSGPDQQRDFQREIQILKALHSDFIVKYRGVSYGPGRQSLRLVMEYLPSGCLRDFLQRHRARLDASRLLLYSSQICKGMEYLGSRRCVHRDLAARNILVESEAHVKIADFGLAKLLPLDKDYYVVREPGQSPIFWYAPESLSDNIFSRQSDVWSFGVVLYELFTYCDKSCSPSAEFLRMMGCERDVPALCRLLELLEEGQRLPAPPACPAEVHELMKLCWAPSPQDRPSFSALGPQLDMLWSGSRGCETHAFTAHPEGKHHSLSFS
T2 sequence (O60674 812-1132): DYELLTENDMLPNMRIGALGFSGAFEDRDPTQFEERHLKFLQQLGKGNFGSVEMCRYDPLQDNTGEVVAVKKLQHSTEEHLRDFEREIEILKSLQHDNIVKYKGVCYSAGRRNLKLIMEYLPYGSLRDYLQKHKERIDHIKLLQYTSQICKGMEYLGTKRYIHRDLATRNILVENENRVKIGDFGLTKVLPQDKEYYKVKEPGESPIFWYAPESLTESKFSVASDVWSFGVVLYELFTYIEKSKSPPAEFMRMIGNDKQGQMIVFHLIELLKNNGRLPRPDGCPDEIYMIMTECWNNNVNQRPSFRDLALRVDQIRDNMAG
T1 sequence (P23458 852-1154): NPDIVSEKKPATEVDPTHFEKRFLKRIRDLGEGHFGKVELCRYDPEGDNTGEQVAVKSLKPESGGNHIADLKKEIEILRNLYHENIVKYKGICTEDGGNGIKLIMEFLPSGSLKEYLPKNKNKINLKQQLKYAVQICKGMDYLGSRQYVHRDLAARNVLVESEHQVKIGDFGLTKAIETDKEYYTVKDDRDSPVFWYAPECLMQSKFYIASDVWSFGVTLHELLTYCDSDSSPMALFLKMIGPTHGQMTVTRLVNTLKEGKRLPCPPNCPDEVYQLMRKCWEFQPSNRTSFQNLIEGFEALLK

FC(F)(F)c1nc(CN2CCC(n3cnc4cnc5[nH]ccc5c43)CC2)cs1 [Example 295, 1-[1-(2-Trifluoromethyl-thiazol-4-ylmethyl)-piperidin-4-yl]-1,6-dihydro-1,3,5,6-tetraaza-as-indacene] was tested, and the Ki (JAK1) was 1.05 nM, the Ki (JAK2) was 2.04 nM and the Ki (JAK3) was 9.86 nM. It also gave a Ki (TYK2) of 28.4 nM.
O=C(CC(F)(F)F)N1CCC[C@@H](n2cnc3cnc4[nH]ccc4c32)C1 [Example 296] gave a Ki (JAK1) of 3.3 nM, a Ki (JAK2) of 4.75 nM and a Ki (JAK3) of 19.5 nM. It also gave a Ki (TYK2) of 16.2 nM.
In the case of CC(C)(C#N)C(=O)N1CCC[C@@H](n2cnc3cnc4[nH]ccc4c32)C1 [Example 297, 2,2-Dimethyl-3-oxo-3-[(R)-3-(6H-1,3,5,6-tetraaza-as-indacen-1-yl)-piperidin-1-yl]-propionitrile], the Ki (JAK1) is reported as 3.91 nM, the Ki (JAK2) is reported as 5.28 nM and the Ki (JAK3) is reported as 21 nM. For the same compound, the Ki (TYK2) was 31.5 nM.
Work on c1cc2c(ncc3nc(C4CC4)n(C4CCNCC4)c32)[nH]1 [Example 298, 2-Cyclopropyl-1-piperidin-4-yl-1,6-dihydro-1,3,5,6-tetraaza-as-indacene] yielded a Ki (JAK1) of 27.8 nM, a Ki (JAK2) of 367 nM and a Ki (JAK3) of 231 nM. It also gave a Ki (TYK2) of 1290 nM.
In the case of FC(F)c1nc2cnc3[nH]ccc3c2n1C1CCN(Cc2ccccc2)CC1 [Example 299, 1-(1-Benzyl-piperidin-4-yl)-2-difluoromethyl-1,6-dihydro-1,3,5,6-tetraaza-as-indacene], the Ki (JAK1) is reported as 2.5 nM, the Ki (JAK2) is reported as 4.53 nM and the Ki (JAK3) is reported as 4.53 nM. For the same compound, the Ki (TYK2) was 127 nM.
With FC(F)(F)c1nc2cnc3[nH]ccc3c2n1[C@@H]1CCCNC1 [Example 301, 1-(R)-Piperidin-3-yl-2-trifluoromethyl-1,6-dihydro-1,3,5,6-tetraaza-as-indacene] the Ki (JAK1) was 373 nM, the Ki (JAK2) was 1300 nM and the Ki (JAK3) was 1450 nM. It also gave a Ki (TYK2) of 2160 nM.
N#CCC(=O)N1CCC[C@@H](n2c(C(F)(F)F)nc3cnc4[nH]ccc4c32)C1 [Example 302, 3-Oxo-3-[(R)-3-(2-trifluoromethyl-6H-1,3,5,6-tetraaza-as-indacen-1-yl)-piperidin-1-yl]-propionitrile] was tested, and the Ki (JAK1) was 9.45 nM, the Ki (JAK2) was 13.7 nM and the Ki (JAK3) was 66.4 nM. It also gave a Ki (TYK2) of 71.7 nM.
In the case of Fc1cncc(CN2CCC(n3cnc4cnc5[nH]ccc5c43)CC2)c1 [Example 303, 1-[1-(5-Fluoro-pyridin-3-ylmethyl)-piperidin-4-yl]-1,6-dihydro-1,3,5,6-tetraaza-as-indacene], the Ki (JAK1) is reported as 2.07 nM, the Ki (JAK2) is reported as 3.53 nM and the Ki (JAK3) is reported as 14.6 nM. It also gave a Ki (TYK2) of 61.2 nM.
In the case of N#Cc1cccc(CN2CCC(n3cnc4cnc5[nH]ccc5c43)CC2)n1 [Example 304, 6-[4-(6H-1,3,5,6-Tetraaza-as-indacen-1-yl)-piperidin-1-ylmethyl]-pyridine-2-carbonitrile], the Ki (JAK1) is reported as 3.32 nM, the Ki (JAK2) is reported as 3.55 nM and the Ki (JAK3) is reported as 20.4 nM. It also gave a Ki (TYK2) of 52.4 nM.
For FC(F)c1nc2cnc3[nH]ccc3c2n1C1CCNCC1 [Example 307, 2-Difluoromethyl-1-piperidin-4-yl-1,6-dihydro-1,3,5,6-tetraaza-as-indacene], the Ki (JAK1) was 18.2 nM, the Ki (JAK2) was 228 nM and the Ki (JAK3) was 202 nM. It also gave a Ki (TYK2) of 373 nM.
N#CCCN1CCC(n2c(C(F)F)nc3cnc4[nH]ccc4c32)CC1 [Example 308, 3-[4-(2-Difluoromethyl-6H-1,3,5,6-tetraaza-as-indacen-1-yl)-piperidin-1-yl]-propionitrile] showed a Ki (JAK1) of 1.5 nM, a Ki (JAK2) of 2.63 nM and a Ki (JAK3) of 6.04 nM. It also gave a Ki (TYK2) of 12.3 nM.
Compound N#Cc1cccc(CN2CCC(n3c(CC(=O)N4CCC(F)(F)CC4)nc4cnc5[nH]ccc5c43)CC2)n1 [Example 309] has a Ki (JAK1) of 52 nM, a Ki (JAK2) of 295 nM and a Ki (JAK3) of 93.4 nM. For the same compound, the Ki (TYK2) was 1940 nM.
CC(C)OC(=O)N[C@H]1CC[C@H](n2cnc3cnc4[nH]ccc4c32)CC1 [Example 310, [(R)-4-(6H-1,3,5,6-Tetraaza-as-indacen-1-yl)-cyclohexyl]-carbamic acid isopropyl ester] showed a Ki (JAK1) of 9.01 nM, a Ki (JAK2) of 26.3 nM and a Ki (JAK3) of 213 nM. It also gave a Ki (TYK2) of 197 nM.
N#Cc1cc(CN2CCC(n3cnc4cnc5[nH]ccc5c43)CC2)ccn1 [Example 313, 4-[4-(6H-1,3,5,6-Tetraaza-as-indacen-1-yl)-piperidin-1-ylmethyl]-pyridine-2-carbonitrile] was tested, and the Ki (JAK1) was 1.38 nM, the Ki (JAK2) was 3.67 nM and the Ki (JAK3) was 59.6 nM. It also gave a Ki (TYK2) of 78.6 nM.
With FC(F)(F)c1cccc(CN2CCC(n3cnc4cnc5[nH]ccc5c43)CC2)n1 [Example 314, 1-[1-(6Trifluoromethyl-pyridin-2-ylmethyl)-piperidin-4-yl]-1,6-dihydro-1,3,5,6-tetraaza-as-indacene] the Ki (JAK1) was 4.46 nM, the Ki (JAK2) was 7.44 nM and the Ki (JAK3) was 36.2 nM. For the same compound, the Ki (TYK2) was 124 nM.
O=C(C1CCC1)N1CCC[C@@H](n2cnc3cnc4[nH]ccc4c32)C1 [Example 315, Cyclobutyl-[(R)-3-(6H-1,3,5,6-tetraaza-as-indacen-1-yl)-piperidin1-yl]-methanone] was tested, and the Ki (JAK1) was 5.7 nM, the Ki (JAK2) was 6.28 nM and the Ki (JAK3) was 41.3 nM. It also gave a Ki (TYK2) of 29.2 nM.
In the case of N#CC1(C(=O)N2CCC[C@@H](n3cnc4cnc5[nH]ccc5c43)C2)CCC1 [Example 316, 1-[(R)-3-(6H-1,3,5,6-Tetraaza-as-indacen-1-yl)-piperidine-carbonyl]-cyclobutanecarbonitrile], the Ki (JAK1) is reported as 2.77 nM, the Ki (JAK2) is reported as 3.2 nM and the Ki (JAK3) is reported as 9.24 nM. For the same compound, the Ki (TYK2) was 17.7 nM.
CC(C)(C)OC(=O)NC1CC(n2cnc3cnc4[nH]ccc4c32)C1 (stereo not drawn) [Example 317, [3-(6H-1,3,5,6-Tetraaza-as-indacen-1-yl)-cyclobutyl]-carbamic acid tert-butyl ester] was tested, and the Ki (JAK1) was 2.9 nM, the Ki (JAK2) was 5.78 nM and the Ki (JAK3) was 37.4 nM. For the same compound, the Ki (TYK2) was 94.6 nM.
With NC1CC(n2cnc3cnc4[nH]ccc4c32)C1 (stereo not drawn) [Example 320, 3-(6H-1,3,5,6-Tetraaza-as-indacen-1-yl)-cyclobutylamine] the Ki (JAK1) was 56 nM, the Ki (JAK2) was 181 nM and the Ki (JAK3) was 1160 nM. For the same compound, the Ki (TYK2) was 608 nM.
For c1ccc(CN2CCC(n3c(C4CCC4)nc4cnc5[nH]ccc5c43)CC2)cc1 [Example 325, 1-(1-Benzyl-piperidin-4-yl)-2-cyclobutyl-1,6-dihydro-1,3,5,6-tetraaza-as-indacene], the Ki (JAK1) was 5.3 nM, the Ki (JAK2) was 21.6 nM and the Ki (JAK3) was 19.5 nM. It also gave a Ki (TYK2) of 1360 nM.
Compound c1cc2c(ncc3nc(C4CCC4)n(C4CCNCC4)c32)[nH]1 [Example 326, 2-Cyclobutyl-1-piperidin-4-yl-1,6-dihydro-1,3,5,6-tetraaza-as-indacene] has a Ki (JAK1) of 27.6 nM, a Ki (JAK2) of 938 nM and a Ki (JAK3) of 552 nM. The Ki (TYK2) was 2630 nM.
Work on N#CCCN1CCC(n2c(C3CCC3)nc3cnc4[nH]ccc4c32)CC1 [Example 327, 3-[4-(2-Cyclobutyl-6H-1,3,5,6-tetraaza-as-indacen-1-yl)-piperidin-1-yl]-propionitrile] yielded a Ki (JAK1) of 4.84 nM, a Ki (JAK2) of 16.9 nM and a Ki (JAK3) of 20 nM. The Ki (TYK2) was 138 nM.
N#Cc1cccc(CNC2CC(n3cnc4cnc5[nH]ccc5c43)C2)c1 (stereo not drawn) [Example 329, 3-{[3-(6H-1,3,5,6-Tetraaza-as-indacen-1-yl)-cyclobutylamino]-methyl}-benzonitrile] gave a Ki (JAK1) of 16.5 nM, a Ki (JAK2) of 41.6 nM and a Ki (JAK3) of 173 nM. The Ki (TYK2) was 230 nM.
N#CCCNC1CC(n2cnc3cnc4[nH]ccc4c32)C1 (stereo not drawn) [Example 331, 3-[3-(6H-1,3,5,6-Tetraaza-as-indacen-1-yl)-cyclobutylamino]-propionitrile] gave a Ki (JAK1) of 6.08 nM, a Ki (JAK2) of 16 nM and a Ki (JAK3) of 64.4 nM. It also gave a Ki (TYK2) of 45.8 nM.
With c1ncc(CN[C@H]2CC[C@@H](n3cnc4cnc5[nH]ccc5c43)CC2)cn1 [Example 333, Pyrimidin-5-ylmethyl-[4-(6H-1,3,5,6-tetraaza-as-indacen-1-yl)-cyclohexyl]-amine] the Ki (JAK1) was 11.7 nM, the Ki (JAK2) was 25.3 nM and the Ki (JAK3) was 170 nM. For the same compound, the Ki (TYK2) was 59.1 nM.
With CC(C)(O)c1nc2cnc3[nH]ccc3c2n1C1CCN(CCC#N)CC1 [Example 335, 3-{4-[2-(1-Hydroxy-1-methyl-ethyl)-6H-1,3,5,6-tetraaza-as-indacen-1-yl]-piperidin-1-yl}-propionitrile] the Ki (JAK1) was 31.2 nM, the Ki (JAK2) was 127 nM and the Ki (JAK3) was 67.6 nM. The Ki (TYK2) was 944 nM.
Compound c1cncc(CN[C@H]2CC[C@H](n3cnc4cnc5[nH]ccc5c43)CC2)c1 [Example 336, Pyridin-3-ylmethyl-[4-(6H-1,3,5,6-tetraaza-as-indacen-1-yl)-cyclohexyl]-amine] has a Ki (JAK1) of 16 nM, a Ki (JAK2) of 63.4 nM and a Ki (JAK3) of 656 nM. For the same compound, the Ki (TYK2) was 77.6 nM.
N#CCCN1CCC(n2c(C3CC3)nc3cnc4[nH]ccc4c32)CC1 [Example 337, 3-[4-(2-Cyclopropyl-6H-1,3,5,6-tetraaza-as-indacen-1-yl)-piperidin-1-yl]-propionitrile] showed a Ki (JAK1) of 2.9 nM, a Ki (JAK2) of 5.31 nM and a Ki (JAK3) of 10.7 nM. The Ki (TYK2) was 33.7 nM.
For OCCN1CCC(n2cnc3cnc4[nH]ccc4c32)CC1 [Example 338, 2-[4-(6H-1,3,5,6-Tetraaza-as-indacen-1-yl)-piperidin-1-yl]-ethanol], the Ki (JAK1) was 21.1 nM, the Ki (JAK2) was 50.1 nM and the Ki (JAK3) was 288 nM. For the same compound, the Ki (TYK2) was 158 nM.
FC(F)(F)CCN1CCC(n2cnc3cnc4[nH]ccc4c32)CC1 [Example 339, 1-[1-(3,3,3-Trifluoro-propyl)-piperidin-4-yl]-1,6-dihydro-1,3,5,6-tetraaza-as-indacene] showed a Ki (JAK1) of 3.89 nM, a Ki (JAK2) of 7.83 nM and a Ki (JAK3) of 40.5 nM. The Ki (TYK2) was 22.5 nM.
